EP4324928A1, “SYNTHETIC REAGENTS FOR ENZYME-CATALYSED ALKYLATION” (priority 2022, dated 2024)
Residue numbers refer to the chain shown, from its start. Counter-ions that a name gives are not always drawn.

Tests used:
bra = assay: TPMT panel screen: SAM production from SAH with methyl donor (HPLC); format: biochemical, Brassica rapa chinensis; settings: 2 mM DMSa, 1 mM SAH, 10 µM TPMT, 50 mM phosphate buffer pH 8.0, 25°C; barely exceeds uncatalyzed background
Source text: (§1) The inventors are not aware of any reports on SAM-dependent methyltransferases that transfer methyl groups from or to sulfates or sulfonates.^[18] […] To test this idea, the inventors assayed a panel of 13 distantly related TPMT homologs for the ability to produce SAM from SAH using DMSa, methyl methanesulfonate (MMSa), methyl toluenesulfonate (MeOTs) or methyl 4-nitrobenzenesulfonate (MeONs) as methyl donor. The proteins were produced in E. coli and purified following standard procedures . The activity of the enzymes was assayed in reactions containing 1 mM SAH, 50 mM phosphate buffer pH 8.0 and 2 mM of either methyl donor. The concentration of SAM after different incubation times (0.5- 24 h) was quantified by HPLC. […] In a nutshell, enzymes that have evolved to catalyze specific physiological reactions may have acquired - by chance - considerable activities for reactions they were never optimized for, while others - from the same enzyme family and with the same physiological function - may have not.

dsq = assay: as above; format: biochemical, Dichomitus squalens; settings: 2 mM DMSa, 1 mM SAH, 10 µM TPMT, 50 mM phosphate buffer pH 8.0, 25°C; complete conversion within 0.5 h
Source text: as §1

[1] = Stability test of methyl donors in phosphate buffer (1H NMR, hydrolysis and phosphorolysis); settings: pH 8.4
Procedure: These solutions were monitored by ^1H NMR at time points between 0.5 to 24 hours to quantify the products of hydrolysis and phosphorolysis. The ^1H NMR signal peaks of all methyl species were integrated and the ratio of them was calculated. The percentage of methyl donor was plotted against time and the graph was fitted with exponential decay model to calculate the half-life of the methyl donor.

AtHMT = molecular target: T1, AtHMT (Arabidopsis thaliana, UniProt Q0WP12); assay: Time-dependent methylation of SAH by HMT using dimethyl sulfate with or without sodium iodide (HPLC); format: biochemical; settings: 1 mM SAH, 2 mM DMSa; efficient SAM production required 10 mM Nal
T1 construct: made in house; host or cells: E. coli Δmtn (DE3)
T1 sequence (Q0WP12 1-227): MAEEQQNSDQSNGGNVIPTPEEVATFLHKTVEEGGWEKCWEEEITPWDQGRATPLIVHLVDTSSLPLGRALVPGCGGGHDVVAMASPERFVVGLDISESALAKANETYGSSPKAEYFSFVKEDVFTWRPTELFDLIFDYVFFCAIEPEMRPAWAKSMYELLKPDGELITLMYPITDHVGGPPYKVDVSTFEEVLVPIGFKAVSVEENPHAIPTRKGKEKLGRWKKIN
Procedure: (§4) The given values are averages of three independent measurements. The associated error is less than 30 % of the average value. […] In addition, the reactions contained 50 mM sodium phosphate buffer (pH 8.0) and were incubated at 25 °C. The concentration of SAM was determined by HPLC. A) with 10 µM BxHMT; B) with 10 µM AtHMT. […] The concentration of SAM was determined by HPLC; B) Initial rates of these reactions were estimated from the slopes of linear-fit curves of the points at 1, 2 and 4 minutes.

mac = assay: TPMT panel screen: SAM production from SAH with methyl donor (HPLC); format: biochemical, Methanosarcina Acetivorans; settings: 2 mM DMSa, 1 mM SAH, 10 µM TPMT, 50 mM phosphate buffer pH 8.0, 25°C; barely exceeds uncatalyzed background
Source text: as §1

acl = assay: as above; format: biochemical, Aspergillus clavatus; settings: 2 mM DMSa, 1 mM SAH, 10 µM TPMT, 50 mM phosphate buffer pH 8.0, 25°C; complete conversion within 0.5 h
Source text: as §1

msm = assay: as above; format: biochemical, Mycolicibacterium smegmatis; settings: 2 mM DMSa, 1 mM SAH, 10 µM TPMT, 50 mM phosphate buffer pH 8.0, 25°C; barely exceeds uncatalyzed background
Source text: as §1

bma = molecular target: T2, bma (Batis maritima, UniProt Q9ZSZ7); assay: as above; format: biochemical; settings: 2 mM DMSa, 1 mM SAH, 10 µM TPMT, 50 mM phosphate buffer pH 8.0, 25°C; barely exceeds uncatalyzed background
T2 construct: Leu-Glu-His6 (C); made in house; host or cells: E. coli Δmtn (DE3)
T2 sequence (Q9ZSZ7 1-230): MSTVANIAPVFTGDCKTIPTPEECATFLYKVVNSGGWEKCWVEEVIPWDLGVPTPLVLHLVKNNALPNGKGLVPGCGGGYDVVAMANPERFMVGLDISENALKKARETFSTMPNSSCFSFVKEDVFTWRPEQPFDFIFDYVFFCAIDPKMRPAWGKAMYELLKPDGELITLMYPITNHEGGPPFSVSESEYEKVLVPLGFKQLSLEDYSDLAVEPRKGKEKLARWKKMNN
Source text: as §1

nba = assay: as above; format: biochemical, Nitrospinae bacterium; settings: 2 mM DMSa, 1 mM SAH, 10 µM TPMT, 50 mM phosphate buffer pH 8.0, 25°C; barely exceeds uncatalyzed background
Source text: as §1

dba = assay: as above; format: biochemical, Dehalococcoidia bacterium; settings: 2 mM DMSa, 1 mM SAH, 10 µM TPMT, 50 mM phosphate buffer pH 8.0, 25°C; barely exceeds uncatalyzed background
Source text: as §1

BxHMT = assay: Time-dependent methylation of SAH by HMT using dimethyl sulfate with or without sodium iodide (HPLC); format: biochemical, Paraburkholderia xenovorans; settings: 1 mM SAH, 2 mM DMSa, 0.1, 1.0 or 10 mM Nal (same efficiency without Nal), 50 mM phosphate buffer pH 8, within two hours
Procedure: as §4

AtHMTV140A = molecular target: T3, AtHMTV140A (Arabidopsis thaliana, UniProt Q0WP12, V140A); assay: Time-dependent methylation of SAH with methyl iodide, initial rates, mutant versus AtHMT (HPLC); format: biochemical; settings: 1 µM enzyme, 1 mM SAH, 2 mM Mel, 50 mM sodium phosphate buffer pH 8.0, 25 °C
T3 construct: made in house; host or cells: E. coli Δmtn (DE3)
T3 sequence (Q0WP12 1-227 V140A): T1 sequence (Q0WP12 1-227) with V140A

AtHMT Val140 to Thr = molecular target: T4, AtHMT Val140 to Thr (Arabidopsis thaliana, UniProt Q0WP12, V140T); settings: previous study; cited from earlier work
T4 sequence (Q0WP12 1-227 V140T): T1 sequence (Q0WP12 1-227) with V140T

[2] = rats; cited from earlier work
TPMT uma = assay: TPMT-catalyzed SAH methylation using dimethyl sulfite as methyl group donor (HPLC); format: biochemical, Ustilago maydis; settings: after 20-hour incubation
Source text: (§2) Dimethyl sulfite (Me2SO3) is used as an additive in some polymers to prevent oxidation. It is much less toxic than dimethyl sulfate and can be considered as a potential methyl group donor. Herein, the inventors performed SAH methylation with dimethyl sulfite (Figure 9).

TBU = assay: as above; format: biochemical; settings: after 20-hour incubation
Source text: as §2

TPMT acl = assay: as above; format: biochemical, Aspergillus clavatus; settings: after 20-hour incubation
Source text: as §2

physchem = format: physicochemical; settings: buffer, pH 8
Procedure: Ethylene sulfate (C2H4SO4) is a two carbon-unit cyclic sulfate. The inventors also used ethylene sulfate to perform SAH alkylation (Figure 7). A new peak with retention time at 15.7 minutes could be detected by HPLC in the reactions with about half number of TPMTs, although the new peak has not been identified as the desired product. If the new peak is the target product, especially for TPMT kal, 37% of SAH was converted to SAM analog after 4-hour incubation. For TPMT CAK and ath_V140A, they also got over 20% yield of SAM analog. In my opinion, the inactivation of TPMT during the reaction was not the reason of relatively low yield of SAM analog. […] During the reaction, most of ethylene sulfate hydrolyzed so that there was not enough ethylene sulfate to alkylate SAH.

TPMT CAK = assay: TPMT-catalyzed SAH alkylation using ethylene sulfate as alkyl group donor (HPLC); format: biochemical; settings: new HPLC peak not identified as the desired product
Source text: (§3) Ethylene sulfate (C2H4SO4) is a two carbon-unit cyclic sulfate. The inventors also used ethylene sulfate to perform SAH alkylation (Figure 7).

ath_V140A = molecular target: T5, ath_V140A (Arabidopsis thaliana, UniProt Q0WP12, V140A); assay: as above; format: biochemical; settings: new HPLC peak not identified as the desired product
T5 construct: made in house; host or cells: E. coli Δmtn (DE3)
T5 sequence (Q0WP12 1-227 V140A): T1 sequence (Q0WP12 1-227) with V140A
Source text: as §3

TPMT kal = assay: as above; format: biochemical, Kordia algicida
Source text: as §3

monoamine oxidase = settings: background statement; cited from earlier work

SMILES: COS(=O)(=O)OC [DMSa, dimethyl sulfate]
- rate (bra): < 0.01 min⁻¹
- rate (dsq): > 3 turnover min^-1
- half-life ([1]; buffer): 0.97 ± 0.05 h
- half-life [1]: 0.95 ± 0.07 h
- acceptance of DMSa as substrate (AtHMT): not a direct substrate
- rate (mac): < 0.01 min⁻¹
- rate (acl): > 3 turnover min^-1
- rate (msm): < 0.01 min⁻¹
- rate (bma): < 0.01 min⁻¹
- rate (nba): < 0.01 min⁻¹
- rate (dba): < 0.01 min⁻¹
- SAH converted to SAM (BxHMT): 60 - 70%

SMILES: COS(C)(=O)=O [MMSa, methyl methanesulfonate]
- half-life ([1]; buffer): 34 ± 1 h
- half-life [1]: 28 ± 4 h

SMILES: COS(=O)(=O)c1ccc([N+](=O)[O-])cc1 [MeONs, methyl 4-nitrobenzenesulfonate]
- half-life ([1]; buffer): 3 ± 0.1 h

SMILES: COS(=O)(=O)c1ccc(C)cc1 [MeOTs, methyl 4-toluenesulfonate]
- half-life ([1]; buffer): 26 ± 1 h
- half-life [1]: 21 ± 3 h

SMILES: CI [Mel, methyl iodide]
- activity for Mel diminished (Val140 to Ala versus AtHMT) (AtHMTV140A): 7 fold
- catalytic efficiency for Mel reduced (Val140 to Thr) (AtHMT Val140 to Thr): 6 fold
- LD50 [2]: 76 mg/kg

SMILES: COS(=O)OC [dimethyl sulfite, Dimethyl sulfite]
- yield of SAM (TPMT uma): 8%
- yield of SAM (TBU): 7%
- yield of SAM (TPMT acl): 14%

SMILES: O=S1(=O)OCCO1 [ethylene sulfate, Ethylene sulfate]
- half-life (physchem): 0.183 h
- yield of SAM analog (TPMT CAK): over 20%
- yield of SAM analog (ath_V140A): over 20%
- yield of SAM analog (TPMT kal; 1 mM SAH, 1 mM ethylene sulfate added every half an hour, after 3-hour incubation): 60%
- SAH converted to SAM analog (TPMT kal; ethylene sulfate as donor, after 4-hour incubation, new HPLC peak not identified as the desired product): 37%

SMILES: C[C@H](NCc1ccc(OCc2cccc(F)c2)cc1)C(N)=O [safinamide]
- increased potency by addition of a single methyl group (monoamine oxidase): 20 fold
- increased selectivity by addition of a single methyl group (monoamine oxidase): ~1000 fold
